{
  "source": "patent US12503704B2",
  "about": "“Modified cell” (Oxford University Innovation Limited, priority 2019, dated 2025)",
  "key": {"[1]": {"test_system": "ICeuI− Glycolysis− strain", "assay": "D-cycloserine treatment, plate counts over time", "assay_type": "cell-based, Escherichia coli", "details": "200 μg/mL D-cycloserine at time 0 and 1.5 hours"}, "[2]": {"test_system": "ICeuI+ Glycolysis− strain", "assay": "D-cycloserine treatment, plate counts over time", "assay_type": "cell-based, Escherichia coli", "details": "200 μg/mL D-cycloserine at time 0 and 1.5 hours"}, "[3]": {"test_system": "ICeuI− Glycolysis+ strain", "assay": "D-cycloserine treatment, plate counts over time", "assay_type": "cell-based, Escherichia coli", "details": "200 μg/mL D-cycloserine at time 0 and 1.5 hours"}, "[4]": {"test_system": "ICeuI+ Glycolysis+ strain", "assay": "D-cycloserine treatment, plate counts over time", "assay_type": "cell-based, Escherichia coli", "details": "200 μg/mL D-cycloserine at time 0 and 1.5 hours"}, "parent cells": {"test_system": "parent cells", "assay": "Screen of D-cycloserine concentrations to maintain SimCell purity", "assay_type": "cell-based, Escherichia coli", "details": "little to no increase in OD", "protocol": "A protocol for minimal cell purification from Heinemann and Ankenbauer was adapted for SimCell purification (12)^a. Mixed cultures of SimCells and parent cells were treated with D-cycloserine to kill actively dividing cells. D-cycloserine was added at a concentration of 200 μg/mL and cells were left to incubate at 37° C. and shake for 1.5 hours before D-cycloserine was added again at the same concentration. After 24 hours of treatment with D-cycloserine, cells were spun down and washed twice with phosphate buffered saline (PBS). When pure SimCell cultures were induced for protein expression, 25 μg/mL D-cycloserine was added every two days to prevent parent cell growth but allow SimCells to be functional.\nFurther optimization of D-cycloserine concentration ensured pure SimCell populations in the following experiments, and excluded the contribution made by remaining parent cells in SimCell populations. After a screen of D-cycloserine concentrations, 25 μg/mL was determined to be the point where parent cells were killed in the culture evidenced by little to no increase in OD (Table S3) but also permitted protein production or other activities in SimCells. By using D-cycloserine which targets active, parent cells, we were able to distinguish activity from SimCells on a larger, culture-level scale for further characterization."}, "SalAR circuit": {"test_system": "SalAR circuit", "assay": "GFP output after induction of the SalAR circuit (pSalAR-GFP) in parent cells", "assay_type": "cell-based, Escherichia coli", "description": "FIGS. 33A-33E: The levels of GFP over time after induction of the SalAR circuit can act as an indicator for the kinetics of catechol production. Production of GFP by parent cells with the pSalAR-GFP plasmid and FIG. 33A without an additional glycolysis pathway (pSEVA224) or FIG. 33B with an additional glycolysis pathway (pSEVA224-GB3). […] FIG. 33C Ratio of fluorescent output of induced cells versus cells not induced with SA. In parent cells GFP production increased by about 1.5 and 2-fold when induced with 100 μM and 500 μM SA, respectively. FIG. 33D Catechol production by E. coli. LB agar plates with aspirin and salicylic acid have no color (top), while catechol is distinctly brown (bottom). When E. coli with pSalAR-GFP was plated on agar with inducers 2 mM Aspirin (bottom middle) or 2 mM salicylic acid (bottom right) catechol was produced and diffused out of the cell, tinting the agar brown. […] FIG. 33E The color of the supernatant darkens as inducer concentration increases, indicating production and export of catechol. SA: salicylic acid, ASA: acetylsalicylic acid (aspirin)."}, "[5]": {"test_system": "fibroblasts; A549, Mo59K, and RD cancer cells"}, "[6]": {"test_system": "fibroblasts; A549, Mo59K, and RD cancer cells", "assay": "Cell viability assay with supplements, all mammalian cell lines", "details": "PBS control"}, "[7]": {"test_system": "A549 lung cancer cell line", "assay": "Cell viability assay (crystal violet)", "assay_type": "cell-based", "details": "catechol at concentrations as low as 100 μM, 24 hours"}, "[8]": {"test_system": "glioblastoma (Mo59K) cancer cell line", "assay": "Cell viability assay (crystal violet)", "assay_type": "cell-based", "details": "catechol at concentrations as low as 100 μM, 24 hours"}, "[9]": {"test_system": "rhabdomyosarcoma (RD) cancer cell line", "assay": "Cell viability assay (crystal violet)", "assay_type": "cell-based", "details": "catechol at concentrations as low as 100 μM, 24 hours"}, "[10]": {"test_system": "fibroblast control cell line (Fibroblasts)", "assay": "Cell viability assay (crystal violet)", "assay_type": "cell-based", "details": "catechol at concentrations as low as 100 μM, 24 hours"}},
  "note": "Read-outs that look alike come from different tables or passages of the source.",
  "data": [
    {"compound": "N[C@@H]1CONC1=O", "note": "[D-cycloserine]", "values": [
      {"measurement": "CFU/mL", "setting": "[1]; time 0 hr", "result": "1.8 × 10^9 CFU/mL"},
      {"measurement": "CFU/mL", "setting": "[1]; time 1.5 hr", "result": "1.1 × 10^9 CFU/mL"},
      {"measurement": "CFU/mL", "setting": "[1]; time 5 hr", "result": "1.3 × 10^7 CFU/mL"},
      {"measurement": "CFU/mL", "setting": "[1]; time 24 hr", "result": "1.6 × 10^7 CFU/mL"},
      {"measurement": "CFU/mL", "setting": "[2]; time 0 hr", "result": "3.5 × 10^5 CFU/mL"},
      {"measurement": "CFU/mL", "setting": "[2]; time 1.5 hr", "result": "4.1 × 10^3 CFU/mL"},
      {"measurement": "CFU/mL", "setting": "[2]; time 5 hr", "result": "7.2 × 10^2 CFU/mL"},
      {"measurement": "CFU/mL", "setting": "[2]; time 24 hr", "result": 0, "unit": "CFU/mL"},
      {"measurement": "CFU/mL", "setting": "[3]; time 0 hr", "result": "1.0 × 10^9 CFU/mL"},
      {"measurement": "CFU/mL", "setting": "[3]; time 1.5 hr", "result": "6.9 × 10^8 CFU/mL"},
      {"measurement": "CFU/mL", "setting": "[3]; time 5 hr", "result": "4 × 10^7 CFU/mL"},
      {"measurement": "CFU/mL", "setting": "[3]; time 24 hr", "result": "8.3 × 10^4 CFU/mL"},
      {"measurement": "CFU/mL", "setting": "[4]; time 0 hr", "result": "3.08 × 10^5 CFU/mL"},
      {"measurement": "CFU/mL", "setting": "[4]; time 1.5 hr", "result": "2.7 × 10^3 CFU/mL"},
      {"measurement": "CFU/mL", "setting": "[4]; time 5 hr", "result": "7.5 × 10^2 CFU/mL"},
      {"measurement": "CFU/mL", "setting": "[4]; time 24 hr", "result": 0, "unit": "CFU/mL"},
      {"measurement": "D-cycloserine concentration at which parent cells were killed while SimCell activity was permitted", "setting": "parent cells", "result": 25, "unit": "µg/mL"}
    ]},
    {"compound": "O=C(O)c1ccccc1O", "note": "[SA, salicylic acid]", "values": [
      {"measurement": "increase in GFP production, induced versus not induced", "setting": "SalAR circuit; 100 μM SA", "result": "about 1.5 fold"},
      {"measurement": "increase in GFP production, induced versus not induced", "setting": "SalAR circuit; 500 μM SA", "result": "~2", "unit": "fold"},
      {"measurement": "effect of supplement alone on viability of mammalian cell lines", "setting": "[5]", "result": "no adverse effects"},
      {"measurement": "effect of supplement alone on viability of mammalian cell lines", "setting": "[6]", "result": "did not cause cell death"}
    ]},
    {"compound": "CC(=O)Oc1ccccc1C(=O)O", "note": "[aspirin, acetylsalicylic acid]", "values": [
      {"measurement": "effect of supplement alone on viability of mammalian cell lines", "setting": "[5]", "result": "no adverse effects"}
    ]},
    {"compound": "Oc1ccccc1O", "note": "[catechol, 1,2-dihydroxybenzene]", "values": [
      {"measurement": "cell viability", "setting": "[7]", "result": "significantly decreased the viability"},
      {"measurement": "cell viability", "setting": "[8]", "result": "significantly decreased the viability"},
      {"measurement": "cell viability", "setting": "[9]", "result": "significantly decreased the viability"},
      {"measurement": "cell viability", "setting": "[10]", "result": "less of an adverse effect"}
    ]}
  ]
}
